Several values for one entry are separate records, joined by “and”; a condition that tells them apart may be missing. Equal entries are not always repeated. Where two headings read alike, the source gives them in different places.
Assays:
feline CaSR (f:CaSR) [1] = molecular target: T1, feline CaSR (f:CaSR) (Felis catus, UniProt A0ABI7YY68); experiment: in vitro PAM testing of amino acids on feline CaSR, single-injection protocol, shift of calcium EC50; assay type: cell-based; details: for EC50: CaCl2 alone, control of the same experiment, read-out: EC50 of Ca^2+ before the shift (without amino acid)
Description: Methods: HEK293TRex/nat-Clytin cells that inducibly express a feline CaSR (f:CaSR) transgene construct was used to screen 30 amino acids to identify compounds that modulate f:CaSR activity. […] The HEK293 cells were seeded at 10,000 cells/well in 384 MTP. 24 hours after cell seeding, cells were loaded with 10 μm coelenterazine in an assay buffer (20 μL/well) for 4 h at room temperature. […] CaCl2 alone was used as a control.
PAM mode (single-injection): Test compound (6× concentrated) and CaCl2 (6× concentrated) were directly mixed 1:1 on the compound plate to get a 3× concentrated working solution of each test compound and control. 10 μl/well of the test compound or control working mixture was injected, and luminescence (i.e., PAM activity) was measured.

[2] = system: feline umami (T1R1/T1R3) receptor; details: cited from earlier work
Human CaSR = molecular target: T2, Human CaSR (Homo sapiens, UniProt P41180); details: Yes/No; cited from earlier work
T2 sequence (P41180 20-1078): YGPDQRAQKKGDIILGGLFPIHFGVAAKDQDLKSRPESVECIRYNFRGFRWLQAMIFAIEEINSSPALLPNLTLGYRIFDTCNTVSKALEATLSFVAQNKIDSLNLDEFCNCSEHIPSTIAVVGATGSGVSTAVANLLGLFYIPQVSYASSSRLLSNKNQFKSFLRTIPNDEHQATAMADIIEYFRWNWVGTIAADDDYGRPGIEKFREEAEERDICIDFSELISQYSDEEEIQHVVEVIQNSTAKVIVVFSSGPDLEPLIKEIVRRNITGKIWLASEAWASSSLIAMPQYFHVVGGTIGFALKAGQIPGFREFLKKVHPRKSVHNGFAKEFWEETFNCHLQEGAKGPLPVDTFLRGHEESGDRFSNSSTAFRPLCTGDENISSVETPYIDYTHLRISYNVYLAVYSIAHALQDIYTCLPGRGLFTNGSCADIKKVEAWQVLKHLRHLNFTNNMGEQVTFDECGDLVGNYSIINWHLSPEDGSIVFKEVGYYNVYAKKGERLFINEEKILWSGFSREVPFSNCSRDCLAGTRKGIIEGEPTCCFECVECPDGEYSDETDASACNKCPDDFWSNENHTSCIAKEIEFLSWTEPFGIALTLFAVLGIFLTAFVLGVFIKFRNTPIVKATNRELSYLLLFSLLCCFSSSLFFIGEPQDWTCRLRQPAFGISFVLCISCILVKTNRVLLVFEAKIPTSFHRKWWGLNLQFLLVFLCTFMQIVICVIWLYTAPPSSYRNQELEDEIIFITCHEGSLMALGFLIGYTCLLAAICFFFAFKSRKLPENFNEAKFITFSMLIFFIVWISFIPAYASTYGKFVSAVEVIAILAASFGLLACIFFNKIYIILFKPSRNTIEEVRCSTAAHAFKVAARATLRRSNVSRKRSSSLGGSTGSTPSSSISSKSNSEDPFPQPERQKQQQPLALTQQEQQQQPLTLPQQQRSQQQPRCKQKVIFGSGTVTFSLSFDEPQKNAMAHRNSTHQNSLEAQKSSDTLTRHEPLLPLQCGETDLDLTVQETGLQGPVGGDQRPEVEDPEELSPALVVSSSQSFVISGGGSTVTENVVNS

feline CaSR (f:CaSR) [3] = molecular target: T1, feline CaSR (f:CaSR); experiment: cell-based; assay type: cell-based
[4] = agonist mode, read-out: EC50 (Agonist)
[5] = double-injection protocol, agonist mode and PAM mode
[6] = PAM mode, CaCl2 injected at EC20, read-out: EC50 (PAM)

T1 sequence (A0ABI7YY68 entry or part of it): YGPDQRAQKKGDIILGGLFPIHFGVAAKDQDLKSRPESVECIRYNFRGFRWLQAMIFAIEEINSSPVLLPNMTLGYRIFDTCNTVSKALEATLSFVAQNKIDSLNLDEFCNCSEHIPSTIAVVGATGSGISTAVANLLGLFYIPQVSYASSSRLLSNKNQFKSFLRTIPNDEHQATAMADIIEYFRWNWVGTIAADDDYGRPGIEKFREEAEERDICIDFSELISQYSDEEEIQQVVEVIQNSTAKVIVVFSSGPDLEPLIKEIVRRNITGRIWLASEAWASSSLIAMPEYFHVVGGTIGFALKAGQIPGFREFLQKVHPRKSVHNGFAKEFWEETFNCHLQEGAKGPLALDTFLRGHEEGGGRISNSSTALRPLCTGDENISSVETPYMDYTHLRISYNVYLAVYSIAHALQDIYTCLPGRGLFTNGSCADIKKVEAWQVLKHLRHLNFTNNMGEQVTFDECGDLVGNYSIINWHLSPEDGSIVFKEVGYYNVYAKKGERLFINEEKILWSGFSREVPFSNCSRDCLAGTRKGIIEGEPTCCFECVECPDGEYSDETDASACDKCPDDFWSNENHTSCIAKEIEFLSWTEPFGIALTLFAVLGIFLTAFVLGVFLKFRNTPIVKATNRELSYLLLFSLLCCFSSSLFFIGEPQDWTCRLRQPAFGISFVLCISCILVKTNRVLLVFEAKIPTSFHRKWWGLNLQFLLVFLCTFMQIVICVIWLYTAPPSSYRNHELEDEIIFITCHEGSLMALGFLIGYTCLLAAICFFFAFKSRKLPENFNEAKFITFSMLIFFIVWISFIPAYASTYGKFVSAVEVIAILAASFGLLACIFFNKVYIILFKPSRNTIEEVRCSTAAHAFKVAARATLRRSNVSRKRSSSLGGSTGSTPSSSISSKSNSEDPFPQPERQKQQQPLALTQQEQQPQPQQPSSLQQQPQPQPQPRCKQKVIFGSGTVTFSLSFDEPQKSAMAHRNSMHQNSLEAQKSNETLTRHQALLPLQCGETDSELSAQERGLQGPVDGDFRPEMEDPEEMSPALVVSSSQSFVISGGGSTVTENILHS

Molecule: N=C(N)NCCC[C@H](N)C(=O)O [L-Arginine]
- Activity Type (feline CaSR (f:CaSR) [1]): PAM EC50 of Ca^2+ moved from 1.5 mM to 0.72 mM in presence of 10 mM L-Arginine

Molecule: C[C@H](N)C(=O)O [L-alanine]
- Comments: Umami-active for cats [2]: Umami-active
- Human CaSR agonist (Human CaSR): Yes
- Feline CaSR agonist (feline CaSR (f:CaSR) [3]; Yes/No): do not activate and No

Molecule: [Ca] [Calcium]
- EC50 (feline CaSR (f:CaSR) [1]; listed as Ca2^+): 1.3 mM
- EC50 (feline CaSR (f:CaSR) [1]; listed as Ca^2+): 1.3 mM and 1.5 mM
- EC50 (feline CaSR (f:CaSR) [3]; [4]): 1620 µM
- Activity Type (feline CaSR (f:CaSR) [3]; [5]): Agonist

Molecule: N[C@@H](Cc1ccccc1)C(=O)O [L-Phenylalanine]
- Activity Type (feline CaSR (f:CaSR) [1]; single-injection PAM mode): PAMs and PAM
- Comments: Umami-active for cats [2]: umami-active
- Feline CaSR agonist (feline CaSR (f:CaSR) [3]; Yes/No): do not activate

Molecule: NCCCC[C@H](N)C(=O)O [L-Lysine]
- Activity Type (feline CaSR (f:CaSR) [1]): PAM EC50 of Ca^2+ moved from 1.5 mM to 0.72 mM in presence of 10 mM L-Lysine

Molecule: N[C@@H](Cc1c[nH]cn1)C(=O)O [L-histidine]
- Comments: Umami-active for cats [2]: Umami-active
- Human CaSR agonist (Human CaSR): Yes
- Feline CaSR agonist (feline CaSR (f:CaSR) [3]; Yes/No): do not activate and No

Molecule: N[C@@H](Cc1c[nH]c2ccccc12)C(=O)O [L-Tryptophan]
- Activity Type (feline CaSR (f:CaSR) [1]; single-injection PAM mode): PAMs and PAM
- Comments: Umami-active for cats [2]: umami-active
- Feline CaSR agonist (feline CaSR (f:CaSR) [3]; Yes/No): do not activate

Molecule: NCCCCN [Putrescine]
- Human CaSR agonist (Human CaSR): Yes
- Feline CaSR agonist (feline CaSR (f:CaSR) [3]): No

Molecule: Cc1ccc(C(CCNC(C)c2ccccc2)c2ccco2)cc1 (stereo not shown) [3-(furan-2-yl)-N-(1-phenylethyl)-3-(p-tolyl)propan-1-amine]
- EC50 (feline CaSR (f:CaSR) [3]; [6]): 0.752 µM
- Activity Type (feline CaSR (f:CaSR) [3]; [5]): PAM

Molecule: CC(NCC1Cc2ccccc2O1)c1ccc2ccccc2n1 (stereo not shown) [N-((2,3-dihydrobenzofuran-2-yl)methyl)-1-(quinolin-2-yl)ethanamine]
- EC50 (feline CaSR (f:CaSR) [3]; [6]): 9.01 µM
- Activity Type (feline CaSR (f:CaSR) [3]; [5]): PAM

Molecule: Terbium
- EC50 (feline CaSR (f:CaSR) [3]; [4]): 175 µM
- Activity Type (feline CaSR (f:CaSR) [3]; [5]): Agonist

Molecule: CSC[C@H](NC(=O)CC[C@H](N)C(=O)O)C(=O)NCC(=O)O [S-Methylglutathione]
- Activity Type (feline CaSR (f:CaSR) [3]; [5]): Agonist

Molecule: N[C@@H](CCC(=O)O)C(=O)O [L-Glutamic acid]
- Activity Type (feline CaSR (f:CaSR) [3]): Agonist

Molecule: N[C@]1(C(=O)O)C[C@H](C(=O)O)C1 [(1s,3s)-1-aminocyclobutane-1,3-dicarboxylic acid]
- Activity Type (feline CaSR (f:CaSR) [3]): Agonist

Molecule: CC(C)[C@H](NC(=O)CC[C@H](N)C(=O)O)C(=O)NCC(=O)O [γ-Glu-Val-Gly]
- EC50 (feline CaSR (f:CaSR) [3]; [4]): 4220 µM
- Activity Type (feline CaSR (f:CaSR) [3]; [5]): Agonist

Molecule: N[C@@H](CCC(=O)N[C@@H](Cc1c[nH]c2ccccc12)C(=O)O)C(=O)O [H-Glu(Trp-OH)—OH]
- Activity Type (feline CaSR (f:CaSR) [3]; [5]): Agonist

Molecule: N[C@@H](CCC(=O)N[C@@H](CCC(=O)O)C(=O)O)C(=O)O [H-Glu(Glu-OH)—OH]
- Activity Type (feline CaSR (f:CaSR) [3]; [5]): Agonist

Molecule: CC(NCC1CCCN(C)C1c1cccs1)c1cc(Cl)c(N)c(Cl)c1 (stereo not shown) [2,6-dichloro-4-(1-(((1-methyl-2-(thiophen-2-yl)piperidin-3-yl)methyl)amino)ethyl)aniline]
- EC50 (feline CaSR (f:CaSR) [3]; [6]): 8.68 µM
- Activity Type (feline CaSR (f:CaSR) [3]; [5]): PAM

Molecule: Cc1ccc(C(CCNC(C)c2cccs2)c2ccco2)cc1 (stereo not shown) [3-(furan-2-yl)-N-(1-(thiophen-2-yl)ethyl)-3-(p-tolyl)propan-1-amine]
- EC50 (feline CaSR (f:CaSR) [3]; [6]): 2.25 µM
- Activity Type (feline CaSR (f:CaSR) [3]; [5]): PAM

Molecule: N[C@@H](CCC(=O)N[C@@H](CCC(=O)N[C@@H](CCC(=O)O)C(=O)O)C(=O)O)C(=O)O [H-Glu(Glu(Glu-OH)—OH)—OH]
- Activity Type (feline CaSR (f:CaSR) [3]): Agonist EC50 2.35 mM
- EC50 (feline CaSR (f:CaSR) [3]; [4]): 2350 µM

Molecule: COc1cc(C(O)(c2nc3ccccc3s2)C(F)(F)F)c(OC)cc1N (stereo not shown) [1-(4-amino-2,5-dimethoxyphenyl)-1-(benzo[d]thiazol-2-yl)-2,2,2-trifluoroethanol]
- EC50 (feline CaSR (f:CaSR) [3]; [6]): 2.42 µM
- Activity Type (feline CaSR (f:CaSR) [3]; [5]): PAM

Molecule: CSCC[C@H](NC(=O)CC[C@H](N)C(=O)O)C(=O)O [H-Glu(Met-OH)—OH]
- Activity Type (feline CaSR (f:CaSR) [3]; [5]): Agonist

Molecule: CC(NC1CCc2c(F)cc(Br)cc21)c1ccncc1 (stereo not shown) [6-bromo-4-fluoro-N-(1-(pyridin-4-yl)ethyl)-2,3-dihydro-1H-inden-1-amine]
- Activity Type (feline CaSR (f:CaSR) [3]; [5]): PAM

Source: patent US20190274334A1 (MARS, INCORPORATED, priority 2016, published 2019)
